Experiments:
Test in all cases: DBD combination treatment, viability enhancement factor
Assay type in all cases: cell-based, human
[1] = system: GS102periNS; conditions: GS102periNS (p20 + p21), labelled therapy combined with crystalline DBD polymorph
Procedure: (§1) Crystalline DBD polymorph treatment was combined with chemotherapy, radiotherapy and targeted inhibitors to determine whether the crystalline DBD polymorph form could: enhance efficacy of the conventional therapies; enhance efficacy when combined with newer ‘targeted’ therapies; or would make (a subset of) cultures more sensitive to this treatment.
(§2) Therefore, cultures were treated with: • a.

[2] = system: GS279periNS; conditions: GS279periNS (p16 + p15), labelled therapy combined with crystalline DBD polymorph;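 also: DBD at its own IC50 and half IC50 determined at Day 5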
Procedure: as §1, §2

[3] = system: GS359NS; conditions: GS359NS (p15 + p14), labelled therapy combined with crystalline DBD polymorph
Procedure: as §1, §2

[4] = system: GS323periNS; conditions: Day 5; GS323periNS (p20 + p19); labelled therapy combined with crystalline DBD polymorph
Procedure: as §1, §2

[5] = system: GS203NS; conditions: Day 8; GS203NS (P19 + p18); labelled therapy combined with crystalline DBD polymorph
Procedure: as §1, §2

[6] = system: GS365NS; conditions: GS365NS (p17 + p16), labelled therapy combined with crystalline DBD polymorph
Procedure: as §1, §2

[7] = system: GS186periNS; conditions: GS186periNS (p15), labelled therapy combined with crystalline DBD polymorph
Procedure: as §1, §2

[8] = system: GS304NS; conditions: GS304NS (p16), labelled therapy combined with crystalline DBD polymorph
Procedure: as §1, §2

[9] = system: GS186coreNS; conditions: GS186coreNS (p18), labelled therapy combined with crystalline DBD polymorph
Procedure: as §1, §2

[10] = system: GS224NS; conditions: GS224NS (p17), labelled therapy combined with crystalline DBD polymorph
Procedure: as §1, §2

[11] = system: GS245NS; conditions: GS245NS (p16 + p15), labelled therapy combined with crystalline DBD polymorph
Procedure: as §1, §2

[12] = system: GS249NS; conditions: GS249NS (p17), labelled therapy combined with crystalline DBD polymorph
Procedure: as §1, §2

[13] = system: GS184NS; conditions: GS184NS (p18 + p19), labelled therapy combined with crystalline DBD polymorph;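 also: DBD at its own IC50 and half IC50 determined at Day 5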
Procedure: as §1, §2

[14] = system: GS289NS; conditions: GS289NS (p15 + p16), labelled therapy combined with crystalline DBD polymorph;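 also: DBD at its own IC50 and half IC50 determined at Day 5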
Procedure: as §1, §2

[15] = system: GS104periNS; conditions: GS104periNS (p21 + p22), labelled therapy combined with crystalline DBD polymorph
Procedure: as §1, §2

[16] = system: GS279coreNS; conditions: Day 5; GS279coreNS (p12 + p13); labelled therapy combined with crystalline DBD polymorph
Procedure: as §1, §2

[17] = system: GS324coreNS; conditions: GS324coreNS (p19), labelled therapy combined with crystalline DBD polymorph
Procedure: as §1, §2

[18] = system: GS257NS; conditions: GS257NS (p16 + p17), labelled therapy combined with crystalline DBD polymorph;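 also: DBD at its own IC50 and half IC50 determined at Day 5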
Procedure: as §1, §2

[19] = system: GS281NS; conditions: GS281NS (p15), labelled therapy combined with crystalline DBD polymorph
Procedure: as §1, §2

[20] = system: GS261NS; conditions: GS261NS (p13), labelled therapy combined with crystalline DBD polymorph
Procedure: as §1, §2

SMILES	enhancement factor (viability % of most effective monotherapy divided by viability % of combination) ([1]; Day 5)	enhancement factor (viability % of most effective monotherapy divided by viability % of combination) ([1]; Day 8)	enhancement factor (viability % of most effective monotherapy divided by viability % of combination) ([2]; Day 5)	enhancement factor (viability % of most effective monotherapy divided by viability % of combination) ([2]; Day 8)	enhancement factor (viability % of most effective monotherapy divided by viability % of combination) ([3]; Day 5)	enhancement factor (viability % of most effective monotherapy divided by viability % of combination) ([3]; Day 8)	enhancement factor (viability % of most effective monotherapy divided by viability % of combination) [4]	enhancement factor (viability % of most effective monotherapy divided by viability % of combination) ([6]; Day 5)	enhancement factor (viability % of most effective monotherapy divided by viability % of combination) ([6]; Day 8)	enhancement factor (viability % of most effective monotherapy divided by viability % of combination) ([7]; Day 5)	enhancement factor (viability % of most effective monotherapy divided by viability % of combination) ([7]; Day 8)	enhancement factor (viability % of most effective monotherapy divided by viability % of combination) ([8]; Day 8)	enhancement factor (viability % of most effective monotherapy divided by viability % of combination) ([9]; Day 5)	enhancement factor (viability % of most effective monotherapy divided by viability % of combination) ([9]; Day 8)	enhancement factor (viability % of most effective monotherapy divided by viability % of combination) ([10]; Day 5)	enhancement factor (viability % of most effective monotherapy divided by viability % of combination) ([10]; Day 8)	enhancement factor (viability % of most effective monotherapy divided by viability % of combination) ([11]; Day 5)	enhancement factor (viability % of most effective monotherapy divided by viability % of combination) ([11]; Day 8)	enhancement factor (viability % of most effective monotherapy divided by viability % of combination) ([12]; Day 5)	enhancement factor (viability % of most effective monotherapy divided by viability % of combination) ([13]; Day 5)	also measured
C/C(=C\C(=O)Nc1ccccc1C(=O)O)c1ccc2ccccc2c1 [BIBR1532]	1.414	2.661	1.361	1.214	2.499	1.168	0.959	1.767	2.954	2.900	1.010	1.065	1.787	1.498	0.969	0.469	1.364	1.936	0.909	1.752	enhancement factor (viability % of most effective monotherapy divided by viability % of combination) [5]: 1.110; enhancement factor (viability % of most effective monotherapy divided by viability % of combination) ([13]; Day 8): 1.367; enhancement factor (viability % of most effective monotherapy divided by viability % of combination) ([14]; Day 5): 1.383; enhancement factor (viability % of most effective monotherapy divided by viability % of combination) ([14]; Day 8): 1.879; enhancement factor (viability % of most effective monotherapy divided by viability % of combination) ([15]; Day 8): 1.247; enhancement factor (viability % of most effective monotherapy divided by viability % of combination) [16]: 1.526; enhancement factor (viability % of most effective monotherapy divided by viability % of combination) ([17]; Day 5): 1.282; enhancement factor (viability % of most effective monotherapy divided by viability % of combination) ([17]; Day 8): 1.713; enhancement factor (viability % of most effective monotherapy divided by viability % of combination) ([18]; Day 5): 1.322; enhancement factor (viability % of most effective monotherapy divided by viability % of combination) ([18]; Day 8): 2.162; enhancement factor (viability % of most effective monotherapy divided by viability % of combination) ([19]; Day 5): 0.641; enhancement factor (viability % of most effective monotherapy divided by viability % of combination) ([19]; Day 8): 2.457
C[C@]1(c2nc3c(C(N)=O)cccc3[nH]2)CCCN1 [ABT-888]	1.248	1.055	1.146	1.102	1.175	1.148	1.106	1.096	1.052	1.134	1.319	1.933	1.394	1.359	1.105	1.201	1.256	0.991	2.994	1.084	enhancement factor (viability % of most effective monotherapy divided by viability % of combination) ([20]; Day 5): 1.388; enhancement factor (viability % of most effective monotherapy divided by viability % of combination) ([20]; Day 8): 1.631; enhancement factor (viability % of most effective monotherapy divided by viability % of combination) ([8]; Day 5): 1.245; enhancement factor (viability % of most effective monotherapy divided by viability % of combination) ([12]; Day 8): 5.030; enhancement factor (viability % of most effective monotherapy divided by viability % of combination) ([13]; Day 8): 1.044; enhancement factor (viability % of most effective monotherapy divided by viability % of combination) ([14]; Day 5): 1.112; enhancement factor (viability % of most effective monotherapy divided by viability % of combination) ([14]; Day 8): 1.113; enhancement factor (viability % of most effective monotherapy divided by viability % of combination) ([15]; Day 5): 1.175; enhancement factor (viability % of most effective monotherapy divided by viability % of combination) ([15]; Day 8): 1.810; enhancement factor (viability % of most effective monotherapy divided by viability % of combination) [16]: 1.321; enhancement factor (viability % of most effective monotherapy divided by viability % of combination) ([17]; Day 5): 1.275; enhancement factor (viability % of most effective monotherapy divided by viability % of combination) ([17]; Day 8): 1.322; enhancement factor (viability % of most effective monotherapy divided by viability % of combination) ([18]; Day 5): 0.922; enhancement factor (viability % of most effective monotherapy divided by viability % of combination) ([18]; Day 8): 1.053; enhancement factor (viability % of most effective monotherapy divided by viability % of combination) ([19]; Day 5): 0.933; enhancement factor (viability % of most effective monotherapy divided by viability % of combination) ([19]; Day 8): 0.812
